PubChem BioAssay (NCI)
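Cultured in 96-well plates, cells were exposed to test compound for 48 hours across five concentrations. The concentration for full growth arrest is given as TGI.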

Key:
Experiment in all cases: growth of human tumour cells (NCI), 48 h
LOX IMVI melanoma = test system: LOX IMVI melanoma
NCI-H23 lung = test system: NCI-H23 lung
SNB-19 CNS = test system: SNB-19 CNS
OVCAR-4 ovarian = test system: OVCAR-4 ovarian
SR leukemia = test system: SR leukemia
OVCAR-8 ovarian = test system: OVCAR-8 ovarian
MDA-MB-435 = test system: MDA-MB-435
RPMI-8226 leukemia = test system: RPMI-8226 leukemia
MCF7 breast = test system: MCF7 breast
MOLT-4 leukemia = test system: MOLT-4 leukemia
UACC-62 melanoma = test system: UACC-62 melanoma
RXF 393 renal = test system: RXF 393 renal
TK-10 renal = test system: TK-10 renal
HOP-92 NSCLC = test system: HOP-92 NSCLC
HOP-62 NSCLC = test system: HOP-62 NSCLC
U251 CNS = test system: U251 CNS
EKVX NSCLC = test system: EKVX NSCLC
HS 578T breast = test system: HS 578T breast
IGROV1 ovarian = test system: IGROV1 ovarian
T-47D breast = test system: T-47D breast
DU-145 prostate = test system: DU-145 prostate
A498 renal = test system: A498 renal
SF-295 CNS = test system: SF-295 CNS
MALME-3M melanoma = test system: MALME-3M melanoma
M14 melanoma = test system: M14 melanoma
SN12C renal = test system: SN12C renal
UO-31 renal = test system: UO-31 renal
K-562 leukemia = test system: K-562 leukemia
NCI-H226 lung = test system: NCI-H226 lung
HT29 colon = test system: HT29 colon
HCT-15 colon = test system: HCT-15 colon
CAKI-1 renal = test system: CAKI-1 renal
SK-MEL-5 melanoma = test system: SK-MEL-5 melanoma
NCI-H522 lung = test system: NCI-H522 lung
UACC-257 melanoma = test system: UACC-257 melanoma
MDA-MB-231 breast = test system: MDA-MB-231 breast
NCI/ADR-RES ovarian = test system: NCI/ADR-RES ovarian
OVCAR-5 ovarian = test system: OVCAR-5 ovarian
OVCAR-3 ovarian = test system: OVCAR-3 ovarian
SNB-75 CNS = test system: SNB-75 CNS
ACHN renal = test system: ACHN renal
SK-MEL-2 melanoma = test system: SK-MEL-2 melanoma
A549 NSCLC = test system: A549 NSCLC
MDA-N = test system: MDA-N
BT-549 breast = test system: BT-549 breast
SK-MEL-28 melanoma = test system: SK-MEL-28 melanoma
786-0 renal = test system: 786-0 renal
SF-268 CNS = test system: SF-268 CNS
NCI-H460 lung = test system: NCI-H460 lung
HCT-116 colon = test system: HCT-116 colon
PC-3 prostate = test system: PC-3 prostate
COLO 205 colon = test system: COLO 205 colon
KM12 colon = test system: KM12 colon
SW-620 colon = test system: SW-620 colon
SK-OV-3 ovarian = test system: SK-OV-3 ovarian
HCC-2998 colon = test system: HCC-2998 colon
HL-60(TB) leukemia = test system: HL-60(TB) leukemia
SF-539 CNS = test system: SF-539 CNS
CCRF-CEM leukemia = test system: CCRF-CEM leukemia

## O=[As](O)(O)c1ccc(NCc2ccccc2)cc1
LOX IMVI melanoma
  TGI: > 100 µM
NCI-H23 lung
  TGI: > 100 µM
SNB-19 CNS
  TGI: > 100 µM
OVCAR-4 ovarian
  TGI: > 100 µM
SR leukemia
  TGI: > 100 µM
OVCAR-8 ovarian
  TGI: > 100 µM
MDA-MB-435
  TGI: > 100 µM
RPMI-8226 leukemia
  TGI: > 100 µM
MCF7 breast
  TGI: > 100 µM
MOLT-4 leukemia
  TGI: > 100 µM
UACC-62 melanoma
  TGI: > 100 µM
RXF 393 renal
  TGI: > 100 µM
TK-10 renal
  TGI: > 100 µM
HOP-92 NSCLC
  TGI: > 100 µM
HOP-62 NSCLC
  TGI: > 100 µM
U251 CNS
  TGI: > 100 µM
EKVX NSCLC
  TGI: > 100 µM
HS 578T breast
  TGI: > 100 µM
IGROV1 ovarian
  TGI: > 100 µM
T-47D breast
  TGI: > 100 µM
DU-145 prostate
  TGI: > 100 µM
A498 renal
  TGI: > 100 µM
SF-295 CNS
  TGI: > 100 µM
MALME-3M melanoma
  TGI: > 100 µM
M14 melanoma
  TGI: > 100 µM
SN12C renal
  TGI: > 100 µM
UO-31 renal
  TGI: > 100 µM
K-562 leukemia
  TGI: > 100 µM
NCI-H226 lung
  TGI: > 100 µM
HT29 colon
  TGI: > 100 µM
HCT-15 colon
  TGI: > 100 µM
CAKI-1 renal
  TGI: > 100 µM
SK-MEL-5 melanoma
  TGI: > 100 µM
NCI-H522 lung
  TGI: > 100 µM
UACC-257 melanoma
  TGI: > 100 µM
MDA-MB-231 breast
  TGI: > 100 µM
NCI/ADR-RES ovarian
  TGI: > 100 µM
OVCAR-5 ovarian
  TGI: > 100 µM
OVCAR-3 ovarian
  TGI: > 100 µM
SNB-75 CNS
  TGI: > 100 µM
ACHN renal
  TGI: > 100 µM
SK-MEL-2 melanoma
  TGI: > 100 µM
A549 NSCLC
  TGI: > 100 µM
MDA-N
  TGI: > 100 µM
BT-549 breast
  TGI: > 100 µM
SK-MEL-28 melanoma
  TGI: > 100 µM
786-0 renal
  TGI: > 100 µM
SF-268 CNS
  TGI: > 100 µM
NCI-H460 lung
  TGI: > 100 µM
HCT-116 colon
  TGI: > 100 µM
PC-3 prostate
  TGI: > 100 µM
COLO 205 colon
  TGI: > 100 µM
KM12 colon
  TGI: > 100 µM

## Cc1[nH]c2ncn(/N=C/c3ccccc3O)c(=N)c2c1Cc1ccccc1
LOX IMVI melanoma
  TGI: > 100 µM
NCI-H23 lung
  TGI: > 100 µM
SNB-19 CNS
  TGI: > 100 µM
OVCAR-4 ovarian
  TGI: > 100 µM
OVCAR-8 ovarian
  TGI: > 100 µM
MDA-MB-435
  TGI: 48.8 µM
RPMI-8226 leukemia
  TGI: > 100 µM
MCF7 breast
  TGI: > 100 µM
MOLT-4 leukemia
  TGI: > 100 µM
UACC-62 melanoma
  TGI: > 100 µM
RXF 393 renal
  TGI: > 100 µM
TK-10 renal
  TGI: > 100 µM
HOP-92 NSCLC
  TGI: > 100 µM
HOP-62 NSCLC
  TGI: > 100 µM
U251 CNS
  TGI: 41.2 µM
EKVX NSCLC
  TGI: > 100 µM
HS 578T breast
  TGI: > 100 µM
IGROV1 ovarian
  TGI: > 100 µM
T-47D breast
  TGI: > 100 µM
DU-145 prostate
  TGI: > 100 µM
SW-620 colon
  TGI: > 100 µM
A498 renal
  TGI: > 100 µM
SF-295 CNS
  TGI: > 100 µM
M14 melanoma
  TGI: > 100 µM
SN12C renal
  TGI: > 100 µM
UO-31 renal
  TGI: > 100 µM
SK-OV-3 ovarian
  TGI: > 100 µM
K-562 leukemia
  TGI: > 100 µM
NCI-H226 lung
  TGI: > 100 µM
HCC-2998 colon
  TGI: 88.7 µM
HT29 colon
  TGI: > 100 µM
HCT-15 colon
  TGI: > 100 µM
CAKI-1 renal
  TGI: > 100 µM
HL-60(TB) leukemia
  TGI: 66.8 µM
UACC-257 melanoma
  TGI: > 100 µM
MDA-MB-231 breast
  TGI: > 100 µM
NCI/ADR-RES ovarian
  TGI: > 100 µM
OVCAR-5 ovarian
  TGI: > 100 µM
OVCAR-3 ovarian
  TGI: 71.8 µM
SNB-75 CNS
  TGI: > 100 µM
ACHN renal
  TGI: > 100 µM
SK-MEL-2 melanoma
  TGI: 83.9 µM
A549 NSCLC
  TGI: > 100 µM
MDA-N
  TGI: 93.8 µM
BT-549 breast
  TGI: > 100 µM
SK-MEL-28 melanoma
  TGI: > 100 µM
SF-539 CNS
  TGI: > 100 µM
786-0 renal
  TGI: > 100 µM
SF-268 CNS
  TGI: > 100 µM
NCI-H460 lung
  TGI: > 100 µM
HCT-116 colon
  TGI: > 100 µM
PC-3 prostate
  TGI: 46.6 µM
CCRF-CEM leukemia
  TGI: > 100 µM
COLO 205 colon
  TGI: > 100 µM
KM12 colon
  TGI: > 100 µM
